The record followed here is patent US9663496B2, “AMPK-activating heterocyclic compounds and methods for using the same” (Rigel Pharmaceuticals, Inc., priority 2010, dated 2017).

By EC50 is commonly meant the concentration that produces a half-maximal response. Low values mean greater potency, high ones weaker potency.

Bounds are passed on as bounds.

This assay deals with AMPK. Nature of the assay: AMPK activation, enzyme-linked immunosorbent assay. The format is biochemical. As to conditions: EC50 for AMPK activation, ELISA. The procedure: Compounds were assayed for their ability to activate AMPK using an enzyme-linked immunosorbent assay. Reagents and procedures for measuring AMPK activation are well known and kits for AMPK activation assays are commercially available.
(ELISA stands for enzyme-linked immunosorbent assay.)
Consider `N#Cc1ccc(OC2CCN(C(=O)c3ccc(C(=O)NC4CCN(c5ccc(C#N)cc5)CC4)cn3)CC2)cc1` [Compound 418, 6-(4-(4-cyanophenoxy)piperidine-1-carbonyl)-N-(1-(4-cyanophenyl)piperidin-4-yl)nicotinamide], for which the EC50 is less than 500 nM.

Regarding `COc1ccc(C(=O)C2CCN(C(=O)c3ccc(C(=O)NC4CCN(Cc5ccc(F)cc5)CC4)nc3)CC2)cc1` [Compound 178, N-(1-(4-fluorobenzyl)piperidin-4-yl)-5-(4-(4-methoxybenzoyl)piperidine-1-carbonyl)picolinamide], the EC50 was less than 500 nM.

`O=C(Nc1ccc(Oc2ccc(F)cc2)nc1)c1ccc(C(=O)N2CCN(Cc3ccc(F)cc3)CC2)nc1` [Compound 334, 6-(4-(4-fluorobenzyl)piperazine-1-carbonyl)-N-(6-(4-fluorophenoxy)pyridin-3-yl)nicotinamide]: the EC50 was less than 500 nM.

In the case of `N#Cc1ccc(CC2CCN(C(=O)c3ccc(C(=O)NC4CCN(Cc5ccc(C#N)cc5)CC4)nc3)CC2)cc1` [Compound 128, N-(1-(4-cyanobenzyl)piperidin-4-yl)-5-(4-(4-cyanobenzyl)piperidine-1-carbonyl)picolinamide], the EC50 is less than 500 nM.

Regarding `COc1ccc(C(=O)C2CCN(C(=O)c3ccc(C(=O)N[C@@H]4CCN(Cc5ccc(OC(C)C)cc5)C[C@H]4F)cn3)CC2)cc1` (relative stereo) [Compound 353, N-((trans)-3-fluoro-1-(4-isopropoxybenzyl)piperidin-4-yl)-6-(4-(4-methoxybenzoyl)piperidine-1-carbonyl)nicotinamide], the EC50 was less than 500 nM.

For `N#Cc1ccc(CN2CCC(NC(=O)c3ccc(C(=O)N4CCC(Oc5ccc(C(F)(F)F)cc5)CC4)cn3)CC2)cc1` [Compound 157, N-(1-(4-cyanobenzyl)piperidin-4-yl)-5-(4-(4-(trifluoromethyl)phenoxy)piperidine-1-carbonyl)picolinamide], the EC50 was less than 500 nM.

In turn, `COc1ccc(C(=O)C2CCN(C(=O)c3ccc(C(=O)NC4CCN(Cc5ccc(N6CCCC6)cc5)CC4)nc3)CC2)cc1` [Compound 194, 5-(4-(4-methoxybenzoyl)piperidine-1-carbonyl)-N-(1-(4-(pyrrolidin-1-yl)benzyl)piperidin-4-yl)picolinamide] had an EC50 of less than 500 nM.

`N#Cc1ccc(CN2CCC(NC(=O)c3ccc(C(=O)N4CCC(Oc5ccc(F)c(F)c5)CC4)cn3)CC2)cc1` [Compound 158, N-(1-(4-cyanobenzyl)piperidin-4-yl)-5-(4-(3,4-difluorophenoxy)piperidine-1-carbonyl)picolinamide] came in with an EC50 of less than 500 nM.

`NC(=O)c1ccc(CN2CCC(NC(=O)c3ccc(C(=O)N4CCN(Cc5ccc(F)cc5)CC4)cn3)CC2)cc1` [Compound 201, N-(1-(4-carbamoylbenzyl)piperidin-4-yl)-5-(4-(4-fluorobenzyl)piperazine-1-carbonyl)picolinamide] came in with an EC50 of 500 to 1000 nM.

In turn, `O=C(Nc1ccc(Oc2ccc(F)cc2)nc1)c1cnc(C(=O)N2CCC(C(=O)c3ccc(F)cc3F)CC2)cn1` [Compound 206, 5-(4-(2,4-difluorobenzoyl)piperidine-1-carbonyl)-N-(6-(4-fluorophenoxy)pyridin-3-yl)pyrazine-2-carboxamide] displayed a concentration for a half-maximal effect (EC50) of less than 500 nM.

The compound `COc1ccc(OC2CCN(C(=O)c3ccc(C(=O)N[C@H]4CC[C@@H](Oc5ccc(C#N)cc5)CC4)nc3)CC2)cc1` [Compound 174, N-((cis)-4-(4-cyanophenoxy)cyclohexyl)-5-(4-(4-methoxyphenoxy)piperidine-1-carbonyl)picolinamide] yielded an EC50 of less than 500 nM.

In turn, `N#Cc1ccc(O[C@H]2CC[C@@H](NC(=O)c3ccc(C(=O)N4CCN(Cc5ccc(F)cc5)CC4)nc3)CC2)cc1` [Compound 332, N-((cis)-4-(4-cyanophenoxy)cyclohexyl)-6-(4-(4-fluorobenzyl)piperazine-1-carbonyl)nicotinamide] returned an EC50 of less than 500 nM.

`COc1ccc(OC2CCN(C(=O)c3ccc(C(=O)NC4CCN(Cc5ccc(C#N)cc5)CC4)cn3)CC2)c(NC(=O)CCOCCOCCOCCOCCNC(=O)CCCC[C@@H]2SC[C@@H]3NC(=O)N[C@@H]32)c1` [Compound 394, N-(1-(4-cyanobenzyl)piperidin-4-yl)-6-(4-(4-methoxy-2-(17-oxo-21-((3aS,4S,6aR)-2-oxohexahydro-1H-thieno[3,4-d]imidazol-4-yl)-4,7,10,13-tetraoxa-16-azahenicosanamido)phenoxy)piperidine-1-carbonyl)nicotinamide] returned an EC50 greater than 10000 nM.

With `N#Cc1ccc(CN2CCC(NC(=O)c3ccc(C(=O)N4CCC(Oc5ccc(S(F)(F)(F)(F)F)cc5)CC4)cn3)CC2)cc1` [Compound 492, N-(1-(4-cyanobenzyl)piperidin-4-yl)-5-(4-(4-(pentafluorosulfanyl)phenoxy)piperidine-1-carbonyl)picolinamide], the concentration giving a half-maximal response (EC50) is less than 500 nM.

The compound `COc1ccc(C(=O)C2CCN(C(=O)c3ccc(C(=O)Nc4ccc(Oc5ccc(F)cc5)nc4)cn3)CC2)cc1` [Compound 325, N-(6-(4-fluorophenoxy)pyridin-3-yl)-6-(4-(4-methoxybenzoyl)piperidine-1-carbonyl)nicotinamide] registered an EC50 of less than 500 nM.

In the case of `N#Cc1ccc(CN2CCC(NC(=O)c3ccc(C(=O)N4CCN(c5ccc(C(=O)C6CC6)cc5)CC4)cn3)CC2)cc1` [Compound 258, N-(1-(4-cyanobenzyl)piperidin-4-yl)-5-(4-(4-(cyclopropanecarbonyl)phenyl)piperazine-1-carbonyl)picolinamide], the EC50 is less than 500 nM.

`N#Cc1ccc(CN2CCC(NC(=O)c3ccc(Nc4ccc(-c5ccccc5)cc4)cn3)CC2)cc1` [Compound 109, 5-(biphenyl-4-ylamino)-N-(1-(4-cyanobenzyl)piperidin-4-yl)picolinamide] came in with an EC50 of 5000 to 10000 nM.

As to `COc1ccc(C(=O)C2CCN(C(=O)c3ccc(C(=O)Nc4ccc(Oc5ccc(C(=O)N(C)C)cc5)nc4)cn3)CC2)cc1` [Compound 480, N-(6-(4-(dimethylcarbamoyl)phenoxy)pyridin-3-yl)-6-(4-(4-methoxybenzoyl)piperidine-1-carbonyl)nicotinamide], the EC50 is less than 500 nM.

On to `CC(C)(c1ccc(F)cc1)N1CCN(C(=O)c2ccc(C(=O)NC3CCN(Cc4ccc(C#N)cc4)CC3)nc2)CC1` [Compound 268, N-(1-(4-cyanobenzyl)piperidin-4-yl)-5-(4-(2-(4-fluorophenyl)propan-2-yl)piperazine-1-carbonyl)picolinamide], for which the EC50 is less than 500 nM.

Turning to `O=C(NC1CCN(Cc2ccc(F)cc2)CC1)c1ccc(C(=O)N2CCC(C(=O)c3ccc(F)cc3)CC2)cn1` [Compound 181, 5-(4-(4-fluorobenzoyl)piperidine-1-carbonyl)-N-(1-(4-fluorobenzyl)piperidin-4-yl)picolinamide], the EC50 is less than 500 nM.

Regarding `COc1ccc(CN2CCC(NC(=O)c3ccc(C(=O)N4CCN(Cc5ccc(F)cc5)CC4)nc3)CC2)cc1` [Compound 327, 6-(4-(4-fluorobenzyl)piperazine-1-carbonyl)-N-(1-(4-methoxybenzyl)piperidin-4-yl)nicotinamide], the EC50 is less than 500 nM.

Regarding `N#Cc1ccc(CN2CCC(NC(=O)c3ccc(C(=O)N4CCC(Oc5ccc(NC(=O)C6CC6)cc5)CC4)nc3)CC2)cc1` [Compound 409, N-(1-(4-cyanobenzyl)piperidin-4-yl)-6-(4-(4-(cyclopropane-carboxamido)phenoxy)piperidine-1-carbonyl)nicotinamide], the EC50 is less than 500 nM.

On to `O=C(N[C@@H]1CCN(Cc2ccncc2)C[C@@H]1F)c1ccc(C(=O)N2CCN(Cc3ccc(F)cc3)CC2)cn1` (relative stereo) [Compound 104, N-(cis-3-fluoro-1-(pyridin-4-ylmethyl)piperidin-4-yl)-5-(4-(4-fluorobenzyl)piperazine-1-carbonyl)picolinamide], for which the EC50 was less than 500 nM.

Take `CS(=O)(=O)c1ccc(OC2CCN(C(=O)c3ccc(C(=O)NC4CCN(Cc5cc(F)cc(F)c5)CC4)cn3)CC2)cc1` [Compound 236, N-(1-(3,5-difluorobenzyl)piperidin-4-yl)-6-(4-(4-(methylsulfonyl)phenoxy)piperidine-1-carbonyl)nicotinamide]: the EC50 was less than 500 nM.

In turn, `COc1ccc(O[C@H]2CC[C@@H](NC(=O)c3ccc(C(=O)N4CCC(Oc5ccc(C(F)(F)F)cc5)CC4)cn3)CC2)cc1` [Compound 185, N-((cis)-4-(4-methoxyphenoxy)cyclohexyl)-5-(4-(4-(trifluoromethyl)phenoxy)piperidine-1-carbonyl)picolinamide] registered an EC50 of less than 500 nM.

`COc1ccc(CN2CCC(NC(=O)c3ccc(C(=O)N4CCN(Cc5ccc(C#N)cc5)CC4)cn3)CC2)cc1` [Compound 285, 5-(4-(4-cyanobenzyl)piperazine-1-carbonyl)-N-(1-(4-methoxybenzyl)piperidin-4-yl)picolinamide] returned an EC50 of less than 500 nM.

Compound `N#Cc1ccc(CN2CCC(NC(=O)c3ccc(C(=O)N4CCC(C(=O)c5ccc(N6CCCC6)cc5)CC4)cn3)CC2)cc1` [Compound 365, N-(1-(4-cyanobenzyl)piperidin-4-yl)-5-(4-(4-(pyrrolidin-1-yl)benzoyl)piperidine-1-carbonyl)picolinamide] showed an EC50 of less than 500 nM.

Turning to `O=C(NC1CCN(Cc2ccccc2)CC1)c1ccc(C(=O)N2CCN(Cc3ccccc3)CC2)nc1` [Compound 74, 6-(4-benzylpiperazine-1-carbonyl)-N-(1-benzylpiperidin-4-yl)nicotinamide], the EC50 is less than 500 nM.

Take `N#Cc1ccc(OC2CCN(C(=O)c3ccc(C(=O)NC4CCN(Cc5ccc(N6CCCC6)cc5)CC4)cn3)CC2)cc1` [Compound 336, 6-(4-(4-cyanophenoxy)piperidine-1-carbonyl)-N-(1-(4-(pyrrolidin-1-yl)benzyl)piperidin-4-yl)nicotinamide]: the EC50 was less than 500 nM.

Take `O=C(NC1CCN(Cc2ccc(F)cc2)CC1)c1cccc(C(=O)NC2CCN(Cc3ccc(F)cc3)CC2)n1` [Compound 87, N2,N6-bis(1-(4-fluorobenzyl)piperidin-4-yl)pyridine-2,6-dicarboxamide]: the 50% effective concentration (EC50) lay within 1000 to 5000 nM.

Take `O=C(Nc1cccc(-c2ccccc2)c1)c1ccc(C(=O)N2CCN(Cc3ccc(F)cc3)CC2)cn1` [Compound 12]: the EC50 fell in the range of 5000 to 10000 nM.
